From patent publication US9284297B2, “Halofuginone analogs for inhibition of tRNA synthetases and uses thereof” (President and Fellows of Harvard College, priority 2008, dated 2016)

Tests used:
[1] = system: Human primary dermal fibroblasts; assay: Inhibition of cell spreading in a fibroblast model; type: cell-based; parameters: key: “+++” vs. “++” vs. “+” in general denotes ˜4-fold differences in potency; “+++” vs. “++” vs. “+” in general denotes ˜4-fold differences in potency; “+++” vs. “++” vs. “+” in general denotes ˜4-fold differences in potency; “−” denotes no activity at any dose tested, up to 1000× the effective dose of halofuginone; conditions: spreading of cells assessed by light microscopy 28 hours after treatment
Experimental: The ability of halofuginone and analogs thereof to inhibit the spreading of freshly plated primary dermal fibroblasts was examined. Human primary dermal fibroblasts were replated and halofuginone added immediately after replating; spreading of cells was assessed by light microscopy 28 hours after treatment with compound. “+++” vs. “++” vs. “+” in general denotes ˜4-fold differences in potency. “−” denotes no activity at any dose tested, up to 1000× the effective dose of halofuginone.

[2] = system: Differentiation of primary naïve T-cells into Th17 cells; assay: Inhibition of Th17 differentiation of primary naïve T-cells by halofuginone analogs; type: cell-based, murine; parameters: key: “+++” vs. “++” vs. “+” in general denotes ˜4-fold differences in potency; “+++” vs. “++” vs. “+” in general denotes ˜4-fold differences in potency; “+++” vs. “++” vs. “+” in general denotes ˜4-fold differences in potency; “−” denotes no activity at any dose tested, up to 1000× the effective dose of halofuginone; conditions: T-cell receptor stimulation+IL-6+TGFb
Experimental: Naïve T-cells were stimulated to differentiate in the presence or absence of 10 nM halofuginone, with 1 mM of the indicated amino acids added to the medium, and stained for Th17 differentiation on day 4. Naïve murine T cells were activated in the presence or absence of TGFβ plus IL-6 as indicated, expanded in for 4 days and restimulated with PMA and ionomycin for intracellular cytokine staining. […] Bars indicate percentage of cells differentiation as Th17 as indicated by IL17 expression.
The effect of different halofuginone and analogs thereof on differentiation of naïve T-cells was assayed as described in legend for FIG. 4 above. Differentiation of primary naïve T-cells into Th17 cells following T-cell receptor stimulation+IL-6+TGFb. “+++” vs. “++” vs. “+” in general denotes ˜4-fold differences in potency. “−” denotes no activity at any dose tested, up to 1000× the effective dose of halofuginone.

[3] = system: translation of luciferase RNA in rabbit reticulocyte lysate; assay: Translation of a luciferase RNA reporter in rabbit reticulocyte lysate; type: biochemical; parameters: key to Translational inhibition: “+++” vs. “++” vs. “+” in general denotes ˜4-fold differences in potency; “+++” vs. “++” vs. “+” in general denotes ˜4-fold differences in potency; “+++” vs. “++” vs. “+” in general denotes ˜4-fold differences in potency; “−” denotes no activity at any dose tested, up to 1000× the effective dose of halofuginone; conditions: luciferase RNA reporter
Experimental: To distinguish these possibilities, the effect of halofuginone on protein translation was examined in an in vitro system (rabbit reticulocyte lysate) in which amino acids are already present at levels adequate to support protein synthesis. […] Distinct tRNA synthetases catalyze the charging of individual tRNA species with their cognate amino acid. To determine which tRNA synthetase is inhibited by halofuginone, several amino acid mixtures were added to the in vitro translation system to determine which, if any, could reverse the inhibition of translation by halofuginone (FIG. 3). […] To examine whether proline could specifically rescue the effect of halofuginone in intact cells, the ability of each amino acid to reverse the effect of halofuginone on eIF2alpha phosphorylation in T-cells or to prevent halofuginone inhibition of Th17 differentiation was tested (FIG. 4). […] Inhibition of EPRS with compounds of the current invention can inhibit Th17 differentiation.
Translation in vitro was performed using rabbit reticulocyte lysates and luciferase mRNA as template. Translation was measured as arbitrary units of luciferase activity using a luminometer based luminescence assay. Log scale presentation of background-subtracted data is shown.
Inhibition of translation of luciferase RNA by halofuginone and analogs thereof was measured as described in FIG. 3 above. Results are shown of translation of a luciferase RNA reporter in a rabbit reticulocyte lysate. “+++” vs. “++” vs. “+” in general denotes ˜4-fold differences in potency. “−” denotes no activity at any dose tested, up to 1000× the effective dose of halofuginone.

[4] = system: Th17 differentiation of CD4+ CD25− T cells; assay: Th17 differentiation of CD4+ CD25− T cells (IL-17+ IFNγ− cells, intracellular cytokine staining); conditions: activated in the presence of TGFβ plus IL-6, intracellular cytokine staining day 4
Experimental: Purified CD4^+ CD25^− T cells were activated in vitro as previously described (Djuretic et al., Nat. Immunol. 8:145, 2007) using 0.3 μg/ml hamster anti-mouse CD3 (clone 145-2C11) (ATCC, Manassas, Va.) and 0.5 μg/ml hamster anti-mouse CD28 (BD Pharmingen, San Jose, Calif.). Activated cell cultures were differentiated using the following combinations of cytokines and antibodies: iTreg—recombinant human TGFβ1 (3 ng/ml—R&D systems, Minneapolis, Minn.), Th17-TGFβ1 (3 ng/ml) plus recombinant mouse IL-6 (30 ng/ml—R&D systems). […] Human IL-2 supernatant (National Cancer Institute) was used in culture at 0.01 U/ml and was added at 48 hours-post activation when T cells were split into tissue culture wells lacking CD3 and CD28 antibodies, with the exception of Th17 cultures that were maintained in the absence of exogenous IL-2. […] All reagents (see below) were added at the time of T cell activation and again at 48 hours post activation unless indicated otherwise.
For detection of intracellular cytokines in murine cells, cultured T or B cells were stimulated with 10 nM PMA (Sigma) and 1 mM ionomycin (Sigma) for 4-5 hours in the presence of 10 mM brefeldin A (Sigma). Stimulated cells were harvested, washed with PBS and fixed with PBS plus 4% paraformaldehyde at room temperature for 20 minutes. Cells were then washed with PBS, permeabilized with PBS supplemented with 1% BSA and 0.5% saponin (Sigma) at room temperature for 10 minutes before cytokine-specific antibodies were added and incubated with cells for an additional 20 minutes at room temperature. […] All stained cells were stored at 4° C. in PBS plus 1% paraformaldehyde prior to FACS analyses.
All cell surface staining was performed in FACS buffer (PBS/2% FBS/0.1% NaN3) and antibodies were incubated with cells on ice for 20-30 minutes. Cells were washed with FACS buffer and fixed with FACS buffer plus 1% paraformaldehyde prior to data acquisition.

[5] = system: CD4+ CD25− T cells (Th1, Th2, iTreg differentiation, proliferation, CD25), CD8+ T cells, B cells; assay: T and B cell activation, proliferation and Th1, Th2, iTreg differentiation; type: cell-based, murine; conditions: polarizing cytokine conditions; IFNγ, IL-4, Foxp3 expression
Experimental: Cytokines secreted into media supernatant were measured using the mouse Th1/Th2 cytometric bead array (CBA—BD Pharmingen) in accordance with manufacturers instructions.

[6] = system: eIF2α phosphorylation and ATF4 protein levels in CD4+ CD25− T cells; assay: Amino acid response (AAR) pathway activation in T cells, western blot; type: cell-based, mice; conditions: 4 hours
Experimental: CD4+ CD25− T cells purified from wild type of GCN2−/− mice were activated through TCR for 4 hours in the presence of halofuginone (10 nM) or 9 (MAZ1310, 10 nM). Whole cell lysates were analyzed by SDS PAGE/Western blot and antibodies indicated.
Naïve T-cells were treated to stimulate the T-cell receptor (TCR) in the presence or absence of 10 nM halofuginone in the presence of 1 mM added amino acid, and then assayed for eIF2alpha activity phosphorylation by SDS PAGE/Western blot.
HF induced detectable eIF2α phosphorylation at 2.5 nM, and this effect plateaued at 5-10 nM HF (FIG. 7D). […] AAR activation was a general consequence of HF treatment; HF induced eIF2α phosphorylation, not only in T cells activated in Th17-priming conditions, but also in resting naïve T cells and T cells activated in ThN, Th1, Th2, and iTreg polarizing conditions (FIG. 7F). […] Thus, the rapid activation of the AAR pathway by HF could underlie both its selective inhibition of Th17 differentiation and its effects on fibroblasts (Pines and Nagler, Gen. Pharmacol. 30:445, 1998).
To delineate the stress response pathway activated by HF, the effects of amino acid starvation with those of tunicamycin (an inducer of ER stress) or HF treatment during T cell activation were compared.
Whole cell lysates were generated from T cells activated for the indicated times. For STAT3 and Smad2/3 western blots cells were harvested, washed in PBS and lysed in 50 mM Tris, pH 7.4, 0.1% SDS, 1% Triton-X100, 140 mM NaCl, 1 mM EDTA, 1 mM EGTA supplemented with protease inhibitors tablets (Roche, Germany), 1 mM NaF and 1 mM Na3VO4. For eIF2α and ATF4 western blots, cells were harvested as above and lysed in 50 mM Tris, pH 7.4, 2% SDS, 20% glycerol and 2 mM EDTA supplemented with protease and phosphatase inhibitors as above. All lysates were cleared via centrifugation and 15-30 μg of protein was resolved by SDS-PAGE. Protein was transferred to nitrocellulose membranes, blocked and blotted using specific antibodies. Antibodies used for western blot analysis were anti-phospho-Smad2, anti-STAT3 (pY705), anti-STAT3, anti-eIF2α^pS51, anti-eIF2α (all from Cell Signaling Technology, Danvers, Mass.). Anti-ATF4/CREB2 and anti-β-actin were purchased from Santa Cruz Biotechnology (Santa Cruz, Calif.). HRP-conjugated secondary antibodies were all purchased from Sigma, with the exception of HRP-conjugated anti-armenian hamster antibody (Jackson Immunoresearch, West Grove, Pa.).

| Translational inhibition [3] | Compound | Fibroblast inhibition [1] | inhibition of Th17 differentiation / IL-17 expression (in words) [4] | also measured |
| --- | --- | --- | --- | --- |
| ++ | N-(6-((Z)-2-(1-(7-bromo-6-chloro-4-oxoquinazolin-3(4H)-yl)-3-((2S/R,3R/S)-3-hydroxypiperidin-2-yl)propan-2-ylidene)hydrazinyl)-6-oxohexyl)-6-(5-(2-oxohexahydro-1H-thieno[3,4-d]imidazol-4-yl)pentanamido)hexanamide [Compound 13] | ++ |  | Inhibition of Th17 differentiation [2]: ++ |
| +++ | C#Cc1cc2ncn(CC(=O)CC3NCCCC3O)c(=O)c2cc1Cl (stereo not shown) [Compound 7, 6-chloro-7-ethynyl-3-(3-((2S/R,3R/S)-3-hydroxypiperidin-2-yl)-2-oxopropyl)quinazolin-4(3H)-one] | +++ |  | Inhibition of Th17 differentiation [2]: +++ |
| ++ | COC(=O)CCCCC(=O)N/N=C(/CC1NCCCC1O)Cn1cnc2cc(Br)c(Cl)cc2c1=O (stereo not shown) [Compound 12, methyl 6-((Z)-2-(1-(7-bromo-6-chloro-4-oxoquinazolin-3(4H)-yl)-3-((2S/R,3R/S)-3-hydroxypiperidin-2-yl)propan-2-ylidene)hydrazinyl)-6-oxohexanoate] | ++ |  |  |
|  | O=C(CC1NCCCC1O)Cn1cnc2cc(Br)c(Cl)cc2c1=O (single isomer, unassigned) [L-enantiomer] |  | completely inactive |  |
|  | C[Si](C)(C)C#Cc1cc2ncn(CC(=O)CC3NCCCC3O)c(=O)c2cc1Cl (stereo not shown) [Compound 5, 6-chloro-3-(3-((2S/R,3R/S)-3-hydroxypiperidin-2-yl)-2-oxopropyl)-7-((trimethylsilyl)ethynyl)quinazolin-4(3H)-one] | ++ |  |  |
|  | C[C@@H]1C[C@H](C)C[C@H](C)[C@@H](O)CC(=O)O[C@H]([C@@H]2CCC[C@H]2C(=O)O)C/C=C/C=C(/C#N)[C@H](O)[C@@H](C)C1 [Borrelidin] |  | inhibits Th17 differentiation | effect on Th1, Th2, iTreg differentiation [5]: without affecting Th1, Th2, or Treg differentiation or cell number |
| + | NCCOCCOCCNC(=O)CCCC#Cc1cc2ncn(CC(=O)CC3NCCCC3O)c(=O)c2cc1Cl (stereo not shown) [Compound 8, N-(2-(2-(2-aminoethoxy)ethoxy)ethyl)-6-(6-chloro-3-(3-((2S/R,3R/S)-3-hydroxypiperidin-2-yl)-2-oxopropyl)-4-oxo-3,4-dihydroquinazolin-7-yl)hex-5-ynamide] | + |  |  |
|  | O=C(CC1NCCCC1O)Cn1cnc2cc(Br)c(Cl)cc2c1=O (single isomer, unassigned) [D-enantiomer of HF] |  | inhibited IL-17 expression more potently than a racemic mixture |  |
|  | tunicamycin |  | had little influence on IL-17 expression in T cells | effect on Th1, Th2, iTreg differentiation [5]: preferentially impaired Th1 and Th2 differentiation; stress response pathway: eIF2α phosphorylation, ATF4 expression, Xbp-1 splicing ([6]; 10 nM HF or 1 μg/ml tunicamycin): induced eIF2α phosphorylation and ATF4 expression together with Xbp-1 splicing |
| ++ | CC(=O)N/N=C(/CC1NCCCC1O)Cn1cnc2cc(Br)c(Cl)cc2c1=O (stereo not shown) [Compound 14, (Z)—N′-(1-(7-bromo-6-chloro-4-oxoquinazolin-3(4H)-yl)-3-((2S/R,3R/S)-3-hydroxypiperidin-2-yl)propan-2-ylidene)acetohydrazide] |  |  |  |
|  | N/N=C(/CC1NCCCC1O)Cn1cnc2cc(Br)c(Cl)cc2c1=O (stereo not shown) [MAZ1686] |  | selectively inhibit the differentiation of Th17 cells | effect on Th1, Th2, iTreg differentiation [5]: without inhibiting Th1 differentiation |
| − | CC(C)(C)OC(=O)N1CCCC(O)C1CC(=O)Cn1cnc2cc(Br)c(Cl)cc2c1=O (stereo not shown) [Compound 9, (2S/R,3R/S)-tert-butyl 2-(3-(7-bromo-6-chloro-4-oxoquinazolin-3(4H)-yl)-2-oxopropyl)-3-hydroxypiperidine-1-carboxylate] | − |  | Inhibition of Th17 differentiation [2]: −; phosphorylation of Ser51 of eIF2alpha, GCN2 dependence ([6]; 10 nM, T cells from wild type or GCN2−/− mice): inactive |
|  | N[C@H](CO)Cc1c[nH]c2ccccc12 [L-tryptophanol] |  | impaired IL-17 production | inhibition of Th17 differentiation / IL-17 expression (in words) ([4]; listed as tryptophanol): inhibited Th17 differentiation |
|  | C#Cc1cc2ncn(CC(=O)CC3NCCCC3O)c(=O)c2cc1Cl (stereo not shown) [MAZ1320] |  | selectively inhibit the differentiation of Th17 cells | effect on Th1, Th2, iTreg differentiation [5]: without inhibiting Th1 differentiation |

| Compound | Translational inhibition [3] | Fibroblast inhibition [1] | inhibition of Th17 differentiation / IL-17 expression (in words) [4] | also measured |
| --- | --- | --- | --- | --- |
| CCOP(=O)(OCC)OC1CCCNC1CC(=O)Cn1cnc2cc(Br)c(Cl)cc2c1=O (stereo not shown) [Compound 16, (2S/R,3R/S)-2-(3-(7-bromo-6-chloro-4-oxoquinazolin-3(4H)-yl)-2-oxopropyl)piperidin-3-yl diethyl phosphate] | − | − |  |  |
| O=C(CC1NCCCC1O)Cn1cnc2ccccc2c1=O (stereo not shown) [Compound 3, febrifugine] | ++ | ++ |  | Inhibition of Th17 differentiation [2]: ++ |
